Results taken from patent publication US20190119200A1, “TERTIARY AMIDES AND METHOD OF USE” (AbbVie Inc., priority 2016, published 2019).

Molecular target: T1, LPAR1 (Homo sapiens, UniProt Q92633)
T1 construct: host or cells: U2OS
Assay: LPAR1 FLIPR Assay
Type: cell-based
Conditions: U2OS cells stably expressing LPAR1, LPA (EC80), Calcium 6 FLIPR dye; for Emax: read-out: Maximum Inhibition
Method: U2OS cells stably expressing LPAR1 (Life Technologies #K1519A) were plated at 12000 cells/well in growth medium (McCoy's 5A medium(Life Technologies 16600-082)) with 10% dFBS (Life Technologies 26400-036), 0.1 mM non-essential amino acids, 25 mM HEPES, 1 mM sodium pyruvate, 1% penicillin/streptomycin, 50 μg/mL hygromycin, and 100 μg/mL Geneticin® in black-walled, clear-bottom 384-well plates (Corning #3683) and incubated in humidified 5% CO2 at 37° C. overnight. On the day of the assay, medium was removed and 30 μL of 5% Calcium 6 FLIPR dye in assay buffer-HBSS (Life Technologies #14025) containing 20 mM HEPES (Life Technologies #15630-080) was added to the cells. Cells were incubated at 37° C. in the dark for 2 hours. Compounds were 3-fold serial diluted from 10 mM for 11-points using dimethyl sulfoxide. 1 μL of compound in DMSO was diluted in 82.3 μL assay buffer immediately before the assay. Using a FLIPR® TETRA® system, 15 μL of the (4×) compound solutions were first added to the cells, then 15 μL of LPA (EC80) diluted in of assay buffer supplemented with 0.1% BSA was added 3 minutes later to activate the receptor. Changes in fluorescence were measured at wavelengths of 515-575 nm over the course of the experimental run. IC50 values were calculated from curve fits of the ratio data using a four-parameter logistic Hill equation (Assay Explorer 3.3 Client).

T1 sequence (Q92633 whole entry): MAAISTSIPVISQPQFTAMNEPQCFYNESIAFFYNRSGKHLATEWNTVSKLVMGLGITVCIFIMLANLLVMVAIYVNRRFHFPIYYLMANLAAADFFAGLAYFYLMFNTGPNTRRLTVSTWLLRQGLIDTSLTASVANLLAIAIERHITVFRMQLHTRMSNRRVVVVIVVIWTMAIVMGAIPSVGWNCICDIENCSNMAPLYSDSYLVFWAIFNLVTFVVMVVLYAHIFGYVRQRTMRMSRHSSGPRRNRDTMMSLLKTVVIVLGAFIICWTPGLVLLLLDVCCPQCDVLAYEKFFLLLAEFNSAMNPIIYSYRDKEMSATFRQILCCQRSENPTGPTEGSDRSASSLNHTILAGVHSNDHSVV

**Q.** With COc1ccc(CCCN(CCCCC(=O)O)C(=O)c2cc(OC)c(C)c(OC)c2)cc1 [Example 43, 5-{(3,5-dimethoxy-4-methylbenzoyl)[3-(4-methoxyphenyl)propyl]amino}pentanoic Acid] as the compound, how does the IC50 read?
**A.** Its IC50 is 23300 nM.

**Q.** And the Emax?
**A.** Its Emax is 55%.

**Q.** Which results are given for Cc1c(Cl)cc(C(=O)N(CCCCC(=O)O)CCCc2ccccc2)cc1Cl [Example 16, 5-[(3,5-dichloro-4-methylbenzoyl)(3-phenylpropyl)amino]pentanoic Acid]?
**A.** IC50: 985 nM; Emax: 70%

**Q.** COc1cc(OC)cc(C(=O)N(CCCc2ccccc2)CCSCC(=O)O)c1 [Example 101, ({2-[(3,5-dimethoxybenzoyl)(3-phenylpropyl)amino]ethyl}sulfanyl)acetic Acid] was tested. Which IC50 did it give?
**A.** Its IC50 is 6950 nM.

**Q.** And the Emax?
**A.** The Emax was 59%.

**Q.** O=C(O)CCCCN(CCCc1ccccc1)C(=O)C1(c2ccc(OC(F)(F)F)cc2)CC1 [Example 25, 5-[(3-phenylpropyl){1-[4-(trifluoromethoxy)phenyl]cyclopropane-1-carbonyl}amino]pentanoic Acid] was tested. Which IC50 did it give?
**A.** The IC50 was 29300 nM.

**Q.** And the Emax?
**A.** The Emax was 48%.

**Q.** COc1cc(C(=O)N(CCCCC(=O)O)CCCc2ccc(C)cc2)cc(OC)c1C [Example 42, 5-{(3,5-dimethoxy-4-methylbenzoyl)[3-(4-methylphenyl)propyl]amino}pentanoic Acid] was tested. Which IC50 did it give?
**A.** Its IC50 is 236 nM.

**Q.** What about the Emax of the same compound?
**A.** The Emax was 90%.

**Q.** What does the source list for COc1cc(C(=O)N(CCCc2ccccc2)CCCC(C)P(=O)(O)O)cc(OC)c1C (stereo not drawn) [Example 72, {5-[(3,5-dimethoxy-4-methylbenzoyl)(3-phenylpropyl)amino]pentan-2-yl}phosphonic Acid]?
**A.** IC50: 26 nM; Emax: 99%

**Q.** COc1cc(C(=O)N(CCCc2ccccc2)CC(=O)NCC(=O)O)cc(OC)c1C [Example 51, N-(3,5-dimethoxy-4-methylbenzoyl)-N-(3-phenylpropyl)glycylglycine] was tested. Which IC50 did it give?
**A.** Its IC50 is 238 nM.

**Q.** What about the Emax of the same compound?
**A.** Its Emax is 62%.

**Q.** How did the IC50 turn out when COc1c(F)cc(C(=O)N(CCCCC(=O)O)CCCc2ccccc2)cc1F [Example 13, 5-[(3,5-difluoro-4-methoxybenzoyl)(3-phenylpropyl)amino]pentanoic Acid] was run?
**A.** The IC50 was 6170 nM.

**Q.** And the Emax?
**A.** The Emax was 48%.

**Q.** What does the source list for O=C(O)CCCCN(CCCc1ccccc1)C(=O)C1(c2ccncc2)CC1 [Example 64, 5-{(3-phenylpropyl)[1-(pyridin-4-yl)cyclopropane-1-carbonyl]amino}pentanoic Acid]?
**A.** IC50: 1230 nM; Emax: 54%

**Q.** Which results are given for COc1cc(C(=O)N(CCCCC(=O)NS(=O)(=O)c2ccc(F)cc2)CCCc2ccccc2)cc(OC)c1C [Example 140, N-{5-[(4-fluorobenzene-1-sulfonyl)amino]-5-oxopentyl}-3,5-dimethoxy-4-methyl-N-(3-phenylpropyl)benzamide]?
**A.** IC50: 143 nM; Emax: 89%

**Q.** What does the source list for COc1cc(C(=O)N(CCCc2ccccc2)CCSCC(=O)O)cc(OC)c1F [Example 100, ({2-[(4-fluoro-3,5-dimethoxybenzoyl)(3-phenylpropyl)amino]ethyl}sulfanyl)acetic Acid]?
**A.** IC50: > 30000 nM; Emax: 60%

**Q.** How did the IC50 turn out when COc1ccc(C2(C(=O)N(CCCCC(=O)O)CCCc3ccccc3)CCCC2)cc1 [Example 106, 5-{[1-(4-methoxyphenyl)cyclopentane-1-carbonyl](3-phenylpropyl)amino}pentanoic Acid] was run?
**A.** Its IC50 is 766 nM.

**Q.** And the Emax?
**A.** The Emax was 55%.

**Q.** Which results are given for O=C(O)CCCCN(CCCc1ccccc1)C(=O)C1CC(=O)Nc2ccc(F)cc21 (stereo not drawn) [Example 168, 5-[(6-fluoro-2-oxo-1,2,3,4-tetrahydroquinoline-4-carbonyl)(3-phenylpropyl)amino]pentanoic Acid]?
**A.** IC50: 1100 nM; Emax: 62%

**Q.** Which IC50 does the source give for COc1cc(C(=O)N(CCCc2ccccc2)CCOC(C)(C)C(=O)NS(C)(=O)=O)cc(OC)c1C [Example 156, N-[2-({1-[(methanesulfonyl)amino]-2-methyl-1-oxopropan-2-yl}oxy)ethyl]-3,5-dimethoxy-4-methyl-N-(3-phenylpropyl)benzamide] here?
**A.** Its IC50 is 21 nM.

**Q.** And the Emax?
**A.** The Emax was 99%.

**Q.** How did the IC50 turn out when COc1cc(C(=O)N(CCCCC(=O)O)[C@@H](C)CCc2ccccc2)cc(OC)c1C [Example 154, 5-{(3,5-dimethoxy-4-methylbenzoyl) [(2S)-4-phenylbutan-2-yl]amino}pentanoic Acid] was run?
**A.** The IC50 was 225 nM.

**Q.** What about the Emax of the same compound?
**A.** Its Emax is 69%.

**Q.** Which IC50 does the source give for COc1cc(C(=O)N(CCCc2ccccc2)CC(=O)N[C@@H](Cc2ccccc2)C(=O)O)cc(OC)c1C [Example 46, N-(3,5-dimethoxy-4-methylbenzoyl)-N-(3-phenylpropyl)glycylphenylalanine] here?
**A.** Its IC50 is 128 nM.

**Q.** And the Emax?
**A.** Its Emax is 66%.

**Q.** How did the IC50 turn out when COc1cc(C(=O)N(CCCCC(=O)O)CCCc2ccccc2)nc(OC)n1 [Example 163, 5-[(2,6-dimethoxypyrimidine-4-carbonyl)(3-phenylpropyl)amino]pentanoic Acid] was run?
**A.** Its IC50 is 244 nM.

**Q.** And the Emax?
**A.** The Emax was 57%.

**Q.** COc1cc(C(=O)N(CCCCP(=O)(O)O)CCCc2ccccc2)cc(OC)c1C [Example 71, {4-[(3,5-dimethoxy-4-methylbenzoyl)(3-phenylpropyl)amino]butyl}phosphonic Acid] was tested. Which IC50 did it give?
**A.** The IC50 was 12 nM.

**Q.** And the Emax?
**A.** The Emax was 91%.

**Q.** Which IC50 does the source give for Cn1cc(C(=O)N(CCCCC(=O)O)CCCc2ccccc2)c2ccccc2c1=O [Example 169, 5-[(2-methyl-1-oxo-1,2-dihydroisoquinoline-4-carbonyl)(3-phenylpropyl)amino]pentanoic Acid] here?
**A.** The IC50 was 3090 nM.

**Q.** What about the Emax of the same compound?
**A.** The Emax was 71%.

**Q.** Which IC50 does the source give for COc1cc(C(=O)N(CCCc2ccc(F)cc2)CCSCC(=O)O)cc(OC)c1C [Example 118, [(2-{(3,5-dimethoxy-4-methylbenzoyl)[3-(4-fluorophenyl)propyl]amino}ethyl)sulfanyl]acetic Acid] here?
**A.** Its IC50 is 247 nM.

**Q.** And the Emax?
**A.** The Emax was 78%.

**Q.** Which IC50 does the source give for COc1cc(C(=O)N(CCCCC(=O)O)[C@H](C)CCc2ccccc2)cc(OC)c1C [Example 153, 5-{(3,5-dimethoxy-4-methylbenzoyl)[(2R)-4-phenylbutan-2-yl]amino}pentanoic Acid] here?
**A.** Its IC50 is 127 nM.

**Q.** And the Emax?
**A.** Its Emax is 83%.

**Q.** Which results are given for COc1cc(C(=O)N(CCCCC(=O)O)CCCc2ccccc2)cc2ccoc12 [Example 24, 5-[(7-methoxy-1-benzofuran-5-carbonyl)(3-phenylpropyl)amino]pentanoic Acid]?
**A.** IC50: 481 nM; Emax: 58%

**Q.** For COc1cc(C(=O)N(CCCc2ccc(F)cc2F)CCSCC(=O)O)cc(OC)c1C [Example 114, [(2-{[3-(2,4-difluorophenyl)propyl](3,5-dimethoxy-4-methylbenzoyl)amino}ethyl)sulfanyl]acetic Acid], which IC50 is on record?
**A.** Its IC50 is 671 nM.

**Q.** What about the Emax of the same compound?
**A.** Its Emax is 76%.

**Q.** COc1cc(C(=O)N(CCCc2ccccc2)CCOC(=O)NS(=O)(=O)c2ccc(F)cc2)cc(OC)c1C [Example 183, 2-[(3,5-dimethoxy-4-methylbenzoyl)(3-phenylpropyl)amino]ethyl (4-fluorobenzene-1-sulfonyl)carbamate] was tested. Which IC50 did it give?
**A.** The IC50 was > 10000 nM.

**Q.** And the Emax?
**A.** The Emax was 30%.

**Q.** Which results are given for COc1cc(C(=O)N(CCCCC(=O)O)CCCc2ccc(C)o2)cc(OC)c1C(F)(F)F [Example 177, 5-{[3,5-dimethoxy-4-(trifluoromethyl)benzoyl][3-(5-methylfuran-2-yl)propyl]amino}pentanoic Acid]?
**A.** IC50: 235 nM; Emax: 57%

**Q.** How did the IC50 turn out when COc1cc(C(=O)N(CCCc2ccccc2)C[C@H]2CCC(=O)O2)cc(OC)c1C [Example 181, 3,5-dimethoxy-4-methyl-N-{[(2R)-5-oxooxolan-2-yl]methyl}-N-(3-phenylpropyl)benzamide] was run?
**A.** Its IC50 is 486 nM.

**Q.** What about the Emax of the same compound?
**A.** The Emax was 80%.

**Q.** For COc1cc(OC(F)(F)F)cc(C(=O)N(CCCCC(=O)O)CCCc2ccccc2)c1 [Example 29, 5-{[3-methoxy-5-(trifluoromethoxy)benzoyl](3-phenylpropyl)amino}pentanoic Acid], which IC50 is on record?
**A.** Its IC50 is 309 nM.

**Q.** What about the Emax of the same compound?
**A.** The Emax was 79%.

**Q.** With CCOc1cc(C(=O)N(CCCCC(=O)O)CCCc2ccccc2)ccn1 [Example 14, 5-[(2-ethoxypyridine-4-carbonyl)(3-phenylpropyl)amino]pentanoic Acid] as the compound, how does the IC50 read?
**A.** Its IC50 is 942 nM.

**Q.** What about the Emax of the same compound?
**A.** Its Emax is 41%.

**Q.** Which results are given for “5-[(3-methoxy-4-methylbenzoyl)(3-phenylpropyl)amino]pentanoic Acid [Example 28]”?
**A.** IC50: 398 nM; Maximum Inhibition: 72%

**Q.** COc1cc(C(=O)N(C/C=C/CC(=O)O)CCCc2ccccc2)cc(OC)c1C [Example 121, (3E)-5-[(3,5-dimethoxy-4-methylbenzoyl)(3-phenylpropyl)amino]pent-3-enoic Acid] was tested. Which IC50 did it give?
**A.** The IC50 was 503 nM.

**Q.** And the Emax?
**A.** Its Emax is 86%.

**Q.** What does the source list for O=C(O)CCCCN(CCCc1ccccc1)C(=O)c1cc(Cl)cc(Cl)c1 [Example 12, 5-[(3,5-dichlorobenzoyl)(3-phenylpropyl)amino]pentanoic Acid]?
**A.** IC50: 3240 nM; Emax: 55%

**Q.** Which results are given for CCOc1cc(C(=O)N(CCCCC(=O)O)CCCc2ccccc2)cc(OCC)c1OCC [Example 21, 5-[(3-phenylpropyl)(3,4,5-triethoxybenzoyl)amino]pentanoic Acid]?
**A.** IC50: 224 nM; Emax: 82%

**Q.** With COc1ccc(C2(C(=O)N(CCCCC(=O)O)CCCc3ccccc3)CC(OC)C2)cc1 (stereo not drawn) [Example 159, 5-{[trans-3-methoxy-1-(4-methoxyphenyl)cyclobutane-1-carbonyl](3-phenylpropyl)amino}pentanoic Acid] as the compound, how does the IC50 read?
**A.** The IC50 was 302 nM.

**Q.** And the “Maximum Inhibition” value?
**A.** Its value is 85%.
